Test results as given in patent publication US20150299796A1, “PREDICTION OF TREATMENT RESPONSE TO JAK/STAT INHIBITOR” (priority 2012, published 2015).

Columns and labels:
[1] = tested on: pSTAT5; experiment: Phospho-STAT5 western blot in hematologic tumor cell lines after treatment; type: cell-based; settings: 0.2 μM or 1 μM, 4 hr and 24 hr
Description: (§1) […] hematologic tumor cell lines (5 positive for pSTAT5 (AML-193, Hel 92.1.7, Set2, TF-1 and UKE-1) and 4 negative for pSTAT5 (RPM18226, U937, Relt and PL-21) were treated with (R)-3-cyclopentyl-3-[4-(7H-pyrrolo[2,3-d]pyrimidin-4-yl)-1H-pyrazol-1-yl]propanenitrilem, 0.2 μM or 1 μM, and samples were collected at 4 hr and 24 hr after treatment. Phospho-STAT5 was examined by western blot analysis, and the expression of the four signature genes was determined by qPCR. The RNA expression level (ΔCt) of each individual gene in the signature was determined by subtracting the average Ct for the signature gene from the average Ct of the two housekeeper genes (GUSB and TBP). For the normalized relative expression levels the DMSO control treatment ΔCt were set to one and all other treatments the gene Ct values are relative to this value.

[2] = tested on: four signature genes (PIM1, CISH, SOCS2, ID1); experiment: qPCR expression of the four signature genes in hematologic tumor cell lines after treatment; type: cell-based; settings: 0.2 μM or 1 μM, 4 hr and 24 hr
Description: as §1

[3] = tested on: UKE-1 tumor xenograft; experiment: UKE-1 tumor xenograft study, modulation of 4-gene signature in tumor; type: in vivo, female NOD.SCID mice; settings: single dose P.O. 60 mg/kg; tumor samples at 4 and 24 hours (FIG. 6)
Description: The modulation of gene signature by (R)-3-cyclopentyl-3-[4-(7H-pyrrolo[2,3-d]pyrimidin-4-yl)-1H-pyrazol-1-yl]propanenitrile (ruxolitinib) was further examined in vivo. UKE-1 cells were implanted in female NOD.SCID mice (Harlan) at 1x10e7 cells/mouse. Single dose of (R)-3-cyclopentyl-3-[4-(7H-pyrrolo[2,3-d]pyrimidin-4-yl)-1H-pyrazol-1-yl]propanenitrile was administered P.O. at 60 mg/kg when tumors reached ˜500 mg. Tumor samples were collected at 4 and 24 hours after treatment. The modulation of pSTAT5 in tumor lysate was examined by Western.

[4] = pSTAT5 negative cell lines (RPMI 8226 in FIG. 2A)
[5] = pSTAT5 positive cell lines (TF-1 in FIG. 2B)

N#CC[C@H](C1CCCC1)n1cc(-c2ncnc3[nH]ccc23)cn1 [(R)-3-cyclopentyl-3-[4-(7H-pyrrolo[2,3-d]pyrimidin-4-yl)-1H-pyrazol-1-yl]propanenitrile]
pSTAT5 modulation [1, 4]: no clear effect | pSTAT5 modulation [1, 5]: down-modulated pSTAT5 | changes in signature gene expression [2, 4]: no clear effect | expression of the signature genes [2, 5]: corresponding reduction of the expression of the signature genes | modulation of 4-gene signature in tumor [3]: consistent to that observed in vitro
